The values that follow come from patent US11040981B2, “Pyrrolotriazine compounds and methods of inhibiting TAM kinases” (Syros Pharmaceuticals, Inc., priority 2017, dated 2021).

One test deals with T1, AXL (Homo sapiens, UniProt P30530).
T1 sequence (P30530 26-894): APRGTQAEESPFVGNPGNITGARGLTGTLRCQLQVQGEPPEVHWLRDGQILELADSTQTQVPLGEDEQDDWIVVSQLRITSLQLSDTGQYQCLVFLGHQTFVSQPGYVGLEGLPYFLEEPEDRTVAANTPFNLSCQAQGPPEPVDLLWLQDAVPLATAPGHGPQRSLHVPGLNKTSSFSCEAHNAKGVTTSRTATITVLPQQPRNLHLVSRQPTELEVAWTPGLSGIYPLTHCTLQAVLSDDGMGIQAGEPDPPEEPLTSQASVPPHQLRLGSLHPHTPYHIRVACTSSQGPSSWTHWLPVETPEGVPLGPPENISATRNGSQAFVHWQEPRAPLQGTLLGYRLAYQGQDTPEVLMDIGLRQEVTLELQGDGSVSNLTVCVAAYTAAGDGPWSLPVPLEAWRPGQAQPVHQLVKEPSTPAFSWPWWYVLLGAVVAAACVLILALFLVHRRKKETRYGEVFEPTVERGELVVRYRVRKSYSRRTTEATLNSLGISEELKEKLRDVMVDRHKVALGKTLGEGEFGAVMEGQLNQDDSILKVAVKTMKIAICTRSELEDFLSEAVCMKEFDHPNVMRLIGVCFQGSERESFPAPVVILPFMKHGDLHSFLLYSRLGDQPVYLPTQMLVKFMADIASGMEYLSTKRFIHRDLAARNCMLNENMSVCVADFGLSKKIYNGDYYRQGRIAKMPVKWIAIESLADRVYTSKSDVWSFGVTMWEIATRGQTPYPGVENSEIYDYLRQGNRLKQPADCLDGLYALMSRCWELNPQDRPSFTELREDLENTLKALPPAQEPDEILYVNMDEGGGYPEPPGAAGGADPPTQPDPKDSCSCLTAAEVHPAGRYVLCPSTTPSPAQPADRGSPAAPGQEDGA
Description: TR-FRET kinase activity assay, AXL. It counts as biochemical. The conditions noted are these: ATP at Km, 60 minutes. In a few lines:
(§1)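 Each kinase phosphorylated a fluorescent-labelled tyrosine peptide in 50 mM HEPES pH 7.5, 10 mM MgCl2, 1 mM EGTA, 0.01% Brij 35, 1 mM DTT at RT, with ATP at Km for that enzyme. After 60 min, EDTA quench and Eu-anti-phosphotyrosine antibody (30 min, dark); IC50 from TR-FRET decrease.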

In a further test the target is T2, FLT3 (Homo sapiens, UniProt P36888).
T2 sequence (P36888 27-993): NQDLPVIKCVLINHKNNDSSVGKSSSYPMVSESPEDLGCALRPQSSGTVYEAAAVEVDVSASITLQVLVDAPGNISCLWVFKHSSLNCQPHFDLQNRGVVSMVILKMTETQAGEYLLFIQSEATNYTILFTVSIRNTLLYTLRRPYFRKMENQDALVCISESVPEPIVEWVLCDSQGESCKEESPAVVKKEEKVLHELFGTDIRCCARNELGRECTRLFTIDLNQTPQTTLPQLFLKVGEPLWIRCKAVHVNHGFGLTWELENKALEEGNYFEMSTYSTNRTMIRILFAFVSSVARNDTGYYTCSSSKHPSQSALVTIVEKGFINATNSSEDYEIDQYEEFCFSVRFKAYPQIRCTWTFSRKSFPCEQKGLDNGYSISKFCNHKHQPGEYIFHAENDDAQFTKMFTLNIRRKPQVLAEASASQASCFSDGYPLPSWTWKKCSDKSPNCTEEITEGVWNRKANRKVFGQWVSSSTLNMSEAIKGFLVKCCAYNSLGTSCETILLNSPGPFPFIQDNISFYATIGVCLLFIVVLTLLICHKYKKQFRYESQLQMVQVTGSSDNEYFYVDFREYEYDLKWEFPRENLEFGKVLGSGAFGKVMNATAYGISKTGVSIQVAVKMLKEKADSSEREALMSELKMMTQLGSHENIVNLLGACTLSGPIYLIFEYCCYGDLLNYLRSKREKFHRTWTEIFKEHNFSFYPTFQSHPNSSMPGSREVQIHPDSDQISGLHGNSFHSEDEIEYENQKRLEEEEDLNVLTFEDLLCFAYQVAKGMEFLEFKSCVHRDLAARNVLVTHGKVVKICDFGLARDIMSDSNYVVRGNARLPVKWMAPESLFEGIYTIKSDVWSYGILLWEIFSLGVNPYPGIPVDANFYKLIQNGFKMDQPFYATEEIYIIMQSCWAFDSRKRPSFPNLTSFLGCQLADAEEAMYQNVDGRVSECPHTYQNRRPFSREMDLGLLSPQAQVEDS
Put plainly: TR-FRET kinase activity assay, FLT3. The class given is biochemical. The conditions noted are these: ATP at Km, 60 minutes. The gist of the method: as §1
(In TR-FRET formats the signal depends on donor and acceptor labels being close together.)

The structures appear in SMILES notation.

The IC50 is the concentration at which inhibition is half-maximal.

With `COC[C@H](C)Nc1ncc2c(-c3cnn(C4COC4)c3)cc(-c3ccc(O)nc3)n2n1` [Compound 501], the IC50 on AXL lay in the range of 100 to 1000 nM; against FLT3, 1000 to 10000 nM.

Turning to `COC[C@H](C)Nc1ncc2c(-c3ccnc(N4CCOC5(COC5)C4)c3)cc([C@H]3CC[C@H](O)CC3)n2n1` [Compound 480], the IC50 is at most 100 nM against AXL and 100 to 1000 nM against FLT3.

In the case of `COC[C@H](C)Nc1ncc2c(-c3ccnc(N4CCNCC4)c3)cc([C@H]3CC[C@H](O)CC3)n2n1` [Compound 434], the IC50 is at most 100 nM on AXL and 100 to 1000 nM on FLT3.

For `COC[C@H](C)Nc1ncc2c(-c3ccnc(N4CCN(C(=O)OC5COC5)CC4)c3)cc([C@H]3CC[C@H](O)CC3)n2n1` [Compound 504], the IC50 at AXL is at most 100 nM; against FLT3, 100 to 1000 nM.

Consider `COC[C@H](C)Nc1ncc2c(C#CC(C)(C)C(=O)N3CCOCC3)cc([C@H]3CC[C@H](O)CC3)n2n1` [Compound 449], for which the IC50 lay in the range of 100 to 1000 nM on AXL and 1000 to 10000 nM at FLT3.

As for `COC[C@H](C)Nc1ncc2c(-c3cnn(C4COC4)c3)cc([C@H]3CC[C@@](C)(O)CC3)n2n1` (single isomer, unassigned) [Compound 453], the values for the IC50 at AXL and on FLT3 were at most 100 nM and 100 to 1000 nM, respectively.

Consider `COC[C@H](C)Nc1ncc2c(-c3cnn(C4COC4)c3)cc([C@H]3CC[C@](C)(O)CC3)n2n1` (single isomer, unassigned) [Compound 452], for which the figures for the IC50 against AXL and at FLT3 were at most 100 nM and 100 to 1000 nM, respectively.

Turning to `COC[C@H](C)Nc1ncc2c(-c3cnn(CC4CCO4)c3)cc([C@H]3CC[C@H](O)CC3)n2n1` (stereo partly drawn) [Compound 439], the IC50 is at most 100 nM on AXL and 100 to 1000 nM at FLT3.

As for `CC[C@H](C)Nc1ncc2c(-c3ccc(CN4CCN(C)CC4)cc3)cc(C3CCC(C)(O)CC3)n2n1` (stereo in doubt) [Compound 131, (cis)-4-(2-((S)-sec-butylamino)-5-(4-((4-methylpiperazin-1-yl)methyl)phenyl)pyrrolo[2,1-f][1,2,4]triazin-7-yl)-1-methylcyclohexanol], the IC50 on AXL and at FLT3 was at most 100 nM throughout.

`COC[C@H](C)Nc1ncc2c(-c3ccnc(N4CCN(S(=O)(=O)C(F)(F)F)CC4)c3)cc([C@H]3CC[C@H](O)CC3)n2n1` [Compound 487]: the IC50 was in the range of 100 to 1000 nM against AXL and 1000 to 10000 nM at FLT3.

For the molecule `C[C@@H](CC(F)(F)F)Nc1ncc2c([C@H]3CC[C@@H](C(=O)N4CCOCC4)CC3)cc([C@H]3CC[C@H](O)CC3)n2n1` [Compound 446], the IC50 at AXL and on FLT3 was at most 100 nM in each case.

For the molecule `COC[C@H](C)Nc1ncc2c(-c3ccnc(N4CCC5(CC4)COC5)c3)cc([C@H]3CC[C@H](O)CC3)n2n1` [Compound 427], the IC50 against AXL was at most 100 nM; on FLT3 it was 100 to 1000 nM.

Consider `CC[C@H](C)Nc1ncc2c(C3=CCOCC3)cc([C@H]3CC[C@H](O)CC3)n2n1` [Compound 128], for which the IC50 at AXL and against FLT3 was at most 100 nM in each case.

For `COC[C@H](C)Nc1ncc2c(C3=C[C@@H]4CC[C@H](C3)N4)cc([C@H]3CC[C@H](O)CC3)n2n1` [Compound 461], the IC50 on AXL is at most 100 nM; against FLT3, 1000 to 10000 nM.

Take `C[C@@H](COC(F)F)Nc1ncc2c(-c3cnn(CCC#N)c3)cc([C@H]3CC[C@H](O)CC3)n2n1` [Compound 437]: the IC50 at AXL and on FLT3 was at most 100 nM in each case.

As for `COC[C@H](C)Nc1ncc2c(-c3cnn(C[C@H]4CC(=O)N(C)C4)c3)cc([C@H]3CC[C@H](O)CC3)n2n1` [Compound 475], the IC50 against AXL was at most 100 nM; against FLT3, 100 to 1000 nM.

In the case of `COC[C@H](C)Nc1ncc2c(C3=C[C@@H]4CC[C@H](C3)N4C)cc([C@H]3CC[C@H](O)CC3)n2n1` [Compound 465], the IC50 on AXL was at most 100 nM; on FLT3, 1000 to 10000 nM.

As for `C[C@@H](CC(F)F)Nc1ncc2c(-c3ccc(S(C)(=O)=O)nc3)cc([C@H]3CC[C@H](O)CC3)n2n1` [Compound 489], the IC50 at AXL and on FLT3 was at most 100 nM each time.

In the case of `COC[C@H](C)Nc1ncc2c(-c3csc(C(=O)N4CCOCC4)c3)cc([C@H]3CC[C@H](O)CC3)n2n1` [Compound 444], the figures for the IC50 on AXL and against FLT3 were at most 100 nM and 100 to 1000 nM, respectively.

For the molecule `COC[C@H](C)Nc1ncc2c(-c3cnn(C(C)(C)C(=O)N4CCN(C)CC4)c3)cc([C@H]3CC[C@H](O)CC3)n2n1` [Compound 466], the values for the IC50 against AXL and on FLT3 were at most 100 nM and 1000 to 10000 nM, respectively.

`CCCCC[C@H](C)Nc1ncc2c([C@H]3CC[C@@H](C(=O)N4CCN(C)CC4)CC3)cc([C@H]3CC[C@H](O)CC3)n2n1` [Compound 127]: the IC50 is at most 100 nM on AXL and 100 to 1000 nM at FLT3.

Take `COC[C@H](C)Nc1ncc2c(C3=C[C@H]4CC[C@@H](C3)N4C)cc([C@H]3CC[C@H](O)CC3)n2n1` [Compound 494]: the IC50 was at most 100 nM at AXL and 1000 to 10000 nM against FLT3.

As to `COC[C@H](C)Nc1ncc2c(-c3cccc(N4C[C@H]5COC[C@H]5C4)c3)cc([C@H]3CC[C@H](O)CC3)n2n1` [Compound 464], the IC50 against AXL is at most 100 nM; against FLT3 it was 100 to 1000 nM.

As to `COC[C@H](C)Nc1ncc2c(-c3ccnc(N4CCN(C(=O)C5COC5)CC4)c3)cc([C@H]3CC[C@H](O)CC3)n2n1` [Compound 500], the IC50 was at most 100 nM against AXL and 100 to 1000 nM at FLT3.

`COC[C@H](C)Nc1ncc2c(-c3ccnc(Oc4cccnc4)c3)cc([C@H]3CC[C@H](O)CC3)n2n1` [Compound 490]: the IC50 on AXL is at most 100 nM; on FLT3 it was 100 to 1000 nM.

On to `COC[C@H](C)Nc1ncc2c(-c3cnn(CC(C)(C)N4CCOCC4)c3)cc([C@H]3CC[C@H](O)CC3)n2n1` [Compound 507], for which the IC50 against AXL is at most 100 nM; against FLT3, 100 to 1000 nM.

Consider `COC[C@H](C)Nc1ncc2c(-c3cnn(C(C)(C)C(=O)C4CCc5sc(C)nc5C4)c3)cc([C@H]3CC[C@H](O)CC3)n2n1` (stereo partly drawn) [Compound 496], for which the IC50 at AXL was at most 100 nM; at FLT3, 1000 to 10000 nM.

With `COC[C@H](C)Nc1ncc2c(-c3ccnc(N4C[C@H]5CC[C@@H](C4)O5)c3)cc([C@H]3CC[C@H](O)CC3)n2n1` [Compound 445], the IC50 is at most 100 nM against AXL and 100 to 1000 nM against FLT3.

For `COC[C@H](C)Nc1ncc2c(C3=CCN(C(=O)OC(C)(C)C)CC3)cc([C@H]3CC[C@H](O)CC3)n2n1` [Compound 425], the IC50 against AXL was at most 100 nM; on FLT3, 100 to 1000 nM.

`COC[C@H](C)Nc1ncc2c(C3=C[C@@H]4CC[C@H](C3)N4C(C)=O)cc([C@H]3CC[C@H](O)CC3)n2n1` [Compound 462]: the IC50 against AXL was at most 100 nM; against FLT3 it was 100 to 1000 nM.

Regarding `COC[C@H](C)Nc1ncc2c(-c3ccc(CC(=O)O)cc3)cc([C@H]3CC[C@H](O)CC3)n2n1` [Compound 133], the IC50 was at most 100 nM against AXL and 100 to 1000 nM against FLT3.

As for `COC[C@H](C)Nc1ncc2c(C#N)cc([C@H]3CC[C@H](O)CC3)n2n1` [Compound 481], the IC50 against AXL and against FLT3 was 1000 to 10000 nM in each case.

With `COC[C@H](C)Nc1ncc2c(-c3ccc(-c4nn[nH]n4)cc3)cc([C@H]3CC[C@H](O)CC3)n2n1` [Compound 134], the IC50 is at most 100 nM on AXL and 1000 to 10000 nM against FLT3.
